Assay [1] addresses T1, Dual specificity protein phosphatase 6 (Rattus norvegicus, UniProt Q64346).
T1 sequence (Q64346 whole entry): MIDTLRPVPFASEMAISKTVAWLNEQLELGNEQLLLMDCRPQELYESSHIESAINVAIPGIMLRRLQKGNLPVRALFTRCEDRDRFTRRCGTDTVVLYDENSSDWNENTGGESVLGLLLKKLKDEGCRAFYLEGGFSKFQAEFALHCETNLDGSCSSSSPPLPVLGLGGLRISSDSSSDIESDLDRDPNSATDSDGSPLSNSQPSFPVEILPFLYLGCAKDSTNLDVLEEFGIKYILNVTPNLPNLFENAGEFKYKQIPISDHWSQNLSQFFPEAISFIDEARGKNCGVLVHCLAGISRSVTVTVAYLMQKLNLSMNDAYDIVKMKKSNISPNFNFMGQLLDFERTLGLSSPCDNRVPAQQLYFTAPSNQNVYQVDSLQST
The class given is functional.

For assay [2], the target named is T2, Tyrosine-protein phosphatase non-receptor type 7 (Homo sapiens, UniProt P35236).
T2 sequence (P35236 whole entry): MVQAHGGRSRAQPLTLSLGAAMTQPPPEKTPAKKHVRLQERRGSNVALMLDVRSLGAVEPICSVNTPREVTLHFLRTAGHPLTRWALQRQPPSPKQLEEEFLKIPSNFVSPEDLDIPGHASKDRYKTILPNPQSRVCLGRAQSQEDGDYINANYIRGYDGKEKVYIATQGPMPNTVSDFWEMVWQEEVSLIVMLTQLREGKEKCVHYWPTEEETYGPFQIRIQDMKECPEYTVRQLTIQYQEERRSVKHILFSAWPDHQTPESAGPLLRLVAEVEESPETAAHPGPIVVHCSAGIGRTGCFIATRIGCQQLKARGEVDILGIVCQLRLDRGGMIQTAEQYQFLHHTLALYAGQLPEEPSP
The format is functional.

Assay [3] addresses T1, Dual specificity protein phosphatase 6.
The target of assay [4] is Glyceraldehyde-3-phosphate dehydrogenase (Homo sapiens, UniProt P04406).
For another assay, the target named is Mu-type opioid receptor (Homo sapiens, UniProt P35372). In words: Counterscreen for agonists of heterodimerization of the mu 1 (OPRM1) and delta 1 (OPRD1) opioid receptors: Luminescence-based cell-based high throughput dose response assay to identify agonists of OPRM1 homodimerization. The format is functional. (Counterscreens check selectivity or assay interference.);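 note: U2OS cells expressing OPRM1 and beta-arrestin as split beta-galactosidase partners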

The target of assay [5] is Delta-type opioid receptor (Homo sapiens, UniProt P41143). Nature of the assay: Counterscreen for agonists of heterodimerization of the mu 1 (OPRM1) and delta 1 (OPRD1) opioid receptors: Luminescence-based cell-based high throughput dose response assay to identify agonists of OPRD1 homodimerization. [Related pubchem assays (depositor defined):AID504326, AID504355, AID504692, AID504904, AID504905]. The format is functional.

Assay [6] concerns the target 5-hydroxytryptamine receptor 5A (Homo sapiens, UniProt P47898). In words: Counterscreen for agonists of OPRM1-OPRD1 heterodimerization: luminescence-based cell-based high throughput dose response assay to identify agonists of 5-hydroxytryptamine (serotonin) 5A receptor (HTR5A). [Related pubchem assays (depositor defined):AID504326, AID504355, AID504692, AID504904, AID504905]. The class given is functional.

For assay [7], the target named is T3, Ubiquitin-conjugating enzyme E2 N (Homo sapiens, UniProt P61088).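 Note: Dose-response confirmation in a TR-FRET assay detecting UBC13-driven polyubiquitin chain formation, inhibition measured.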
T3 sequence (P61088 whole entry): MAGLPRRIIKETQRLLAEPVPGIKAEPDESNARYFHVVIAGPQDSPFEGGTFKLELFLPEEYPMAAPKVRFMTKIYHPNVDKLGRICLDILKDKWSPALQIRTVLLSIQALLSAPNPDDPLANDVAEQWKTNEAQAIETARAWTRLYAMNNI
The class given is functional.

In assay [8] the target is T4, Short transient receptor potential channel 4 (Mus musculus, UniProt Q9QUQ5).
T4 sequence (Q9QUQ5 whole entry): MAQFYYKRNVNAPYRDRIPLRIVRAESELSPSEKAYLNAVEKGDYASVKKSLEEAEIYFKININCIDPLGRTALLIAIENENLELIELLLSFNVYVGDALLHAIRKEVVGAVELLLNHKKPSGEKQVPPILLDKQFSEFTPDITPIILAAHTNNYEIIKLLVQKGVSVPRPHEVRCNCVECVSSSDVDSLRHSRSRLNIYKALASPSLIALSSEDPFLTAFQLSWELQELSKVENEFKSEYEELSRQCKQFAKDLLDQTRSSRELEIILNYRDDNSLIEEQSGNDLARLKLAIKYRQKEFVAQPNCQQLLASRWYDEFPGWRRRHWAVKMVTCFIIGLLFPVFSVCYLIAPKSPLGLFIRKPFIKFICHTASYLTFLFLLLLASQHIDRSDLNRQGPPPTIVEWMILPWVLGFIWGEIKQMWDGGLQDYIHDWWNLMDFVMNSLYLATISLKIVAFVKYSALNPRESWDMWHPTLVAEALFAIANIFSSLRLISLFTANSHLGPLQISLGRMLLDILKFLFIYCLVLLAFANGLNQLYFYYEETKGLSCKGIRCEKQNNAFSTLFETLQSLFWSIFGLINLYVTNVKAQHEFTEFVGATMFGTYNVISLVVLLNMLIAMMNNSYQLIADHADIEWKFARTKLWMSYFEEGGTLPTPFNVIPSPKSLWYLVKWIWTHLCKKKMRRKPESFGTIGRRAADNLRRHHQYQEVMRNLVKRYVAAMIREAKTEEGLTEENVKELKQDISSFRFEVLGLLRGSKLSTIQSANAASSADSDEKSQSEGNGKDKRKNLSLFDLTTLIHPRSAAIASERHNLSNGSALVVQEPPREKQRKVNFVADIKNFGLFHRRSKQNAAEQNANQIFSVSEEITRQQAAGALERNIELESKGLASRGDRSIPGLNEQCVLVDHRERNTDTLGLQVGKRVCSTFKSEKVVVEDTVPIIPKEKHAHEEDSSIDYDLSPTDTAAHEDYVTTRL
Nature of the assay: mouse TRPC4 channel activators, dose response, cell-based, HEK293 TRPC4/mu-opioid, Fluo-4 calcium (AID 434937). The class given is functional.

The results in this text go back to ChEMBL document CHEMBL1201862, “PubChem BioAssay data set” (2004).

The structures appear in SMILES notation. Active and inactive are the calls of the source. Cut-off read from the data, not from the text of the source, for most assays here: actives have a measured IC50 and inactives only a lower limit.

Glyceraldehyde-3-phosphate dehydrogenase, sequence (P04406 whole entry): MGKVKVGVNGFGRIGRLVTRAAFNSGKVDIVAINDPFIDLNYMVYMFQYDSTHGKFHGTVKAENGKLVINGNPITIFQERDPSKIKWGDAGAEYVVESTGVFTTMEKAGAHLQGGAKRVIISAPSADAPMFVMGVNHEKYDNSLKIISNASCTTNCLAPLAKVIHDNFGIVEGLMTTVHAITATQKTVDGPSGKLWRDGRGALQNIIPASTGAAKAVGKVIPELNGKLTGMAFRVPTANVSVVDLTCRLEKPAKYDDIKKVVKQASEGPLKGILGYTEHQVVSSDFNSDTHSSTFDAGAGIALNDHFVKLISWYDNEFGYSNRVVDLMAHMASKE
Mu-type opioid receptor, sequence (P35372 whole entry): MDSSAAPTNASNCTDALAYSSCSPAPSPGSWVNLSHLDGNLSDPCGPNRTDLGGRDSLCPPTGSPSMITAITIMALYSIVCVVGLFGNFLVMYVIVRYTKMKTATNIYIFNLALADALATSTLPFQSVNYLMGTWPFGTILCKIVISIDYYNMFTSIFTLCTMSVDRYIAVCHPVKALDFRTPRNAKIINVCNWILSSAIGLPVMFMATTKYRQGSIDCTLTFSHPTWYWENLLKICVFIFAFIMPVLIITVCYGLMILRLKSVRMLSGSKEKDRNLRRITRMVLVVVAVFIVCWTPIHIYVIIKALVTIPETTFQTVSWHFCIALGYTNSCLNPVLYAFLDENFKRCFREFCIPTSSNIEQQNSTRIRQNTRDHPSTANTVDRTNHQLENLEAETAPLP
5-hydroxytryptamine receptor 5A, sequence (P47898 whole entry): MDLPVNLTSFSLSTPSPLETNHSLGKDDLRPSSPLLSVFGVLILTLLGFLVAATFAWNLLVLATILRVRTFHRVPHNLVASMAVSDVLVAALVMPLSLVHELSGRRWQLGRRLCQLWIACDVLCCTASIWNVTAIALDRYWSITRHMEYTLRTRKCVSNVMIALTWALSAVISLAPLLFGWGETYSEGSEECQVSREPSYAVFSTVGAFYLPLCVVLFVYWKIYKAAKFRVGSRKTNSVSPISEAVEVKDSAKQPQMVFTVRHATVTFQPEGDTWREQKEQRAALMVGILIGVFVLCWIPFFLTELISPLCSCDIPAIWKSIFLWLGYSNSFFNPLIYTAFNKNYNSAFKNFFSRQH
Delta-type opioid receptor, sequence (P41143 whole entry): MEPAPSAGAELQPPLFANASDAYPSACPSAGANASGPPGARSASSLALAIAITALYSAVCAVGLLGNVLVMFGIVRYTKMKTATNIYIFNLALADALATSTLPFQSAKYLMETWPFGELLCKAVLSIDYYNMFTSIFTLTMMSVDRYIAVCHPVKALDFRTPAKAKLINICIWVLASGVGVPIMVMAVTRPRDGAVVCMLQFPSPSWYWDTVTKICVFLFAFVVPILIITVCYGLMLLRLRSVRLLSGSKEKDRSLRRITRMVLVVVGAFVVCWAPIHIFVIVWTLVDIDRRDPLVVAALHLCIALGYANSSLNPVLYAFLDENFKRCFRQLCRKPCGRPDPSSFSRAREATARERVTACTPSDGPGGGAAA

Regarding `COCCCNc1nc(=O)n(-c2ccc(F)cc2)c(=O)[nH]1`, the IC50 was > 100 µM (inactive) in assay [1], > 100 µM (not active) in assay [2], > 100 µM (inactive) in assay [3] and > 100 µM (not active) in assay [4].
For the molecule `Cn1c(=O)n(CC(N)=O)c(=O)n(-c2ccccc2)c1=O`, the IC50 in assay [1] was > 100 µM (inactive); in assay [2], > 100 µM (not active); in assay [3], > 100 µM (inactive); in [4], > 100 µM (not active).
As for `Clc1cccc(Cl)c1COc1nnc(-c2cccs2)c(-c2cccs2)n1`, the IC50 is > 100 µM (inactive) in assay [1], > 100 µM (not active) in assay [2], > 100 µM (inactive) in assay [3] and > 100 µM (not active) in assay [4].
Take `CC[C@@H](C)[C@@H]1CN([C@@H](CN2CCC[C@H]2CN2C(N)=NC[C@H]2C(C)C)C(C)C)C(=N)N1CCc1ccc(Cl)c(Cl)c1`: the results for the EC50 (at Mu-type opioid receptor; in [5]; in [6]) were 10.9 µM (inactive), > 92.5 µM (inactive) and > 92.5 µM (inactive), respectively. For the same molecule, the IC50 in assay [7] was > 20 µM (inactive).
Consider `CN(C)c1ccc(C(CNC(=O)Cc2cccc3ccccc23)N(C)C)cc1` (stereo not given), for which the EC50 at Mu-type opioid receptor is > 92.4 µM (inactive); in assay [5] it was > 92.4 µM (inactive); in assay [6] it was > 92.4 µM (inactive); in [8], 0.944 µM (active).

In general, IC50 refers to the point on the concentration scale where inhibition reaches its midpoint. Broadly, the EC50 is the concentration at which the effect is half-maximal.
